In patent publication US8415469B2, “Compounds and methods for kinase modulation, and indications therefor” (Plexxikon Inc., priority 2005, dated 2013):

Legend:
Met = target: T1, Met (Homo sapiens, UniProt P08581); test: AlphaScreen kinase assay, Met; format: biochemical; conditions: read-out: IC50, activity toward kinase Met
T1 construct: P1818.pETN6 BI-PTP MET G1056-G1364-X WT; His6 (N); made in house; host or cells: E. coli (PTP1B co-expressed)
In short: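 Peptide phosphorylation detected by proximity: streptavidin donor beads bind biotinylated substrate, acceptor beads carry antibody to phosphorylated substrate, singlet oxygen transfer gives emission. Dose-response over 8 points (1:3 steps); stocks 20 mM in DMSO.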

EphB2 = target: T2, EphB2 (Homo sapiens, UniProt P29323); test: Z'-Lyte FRET kinase assay (Invitrogen), EphB2; format: biochemical; conditions: read-out: IC50, activity toward kinase EphB2
T2 construct: purchased Invitrogen (assay run by Invitrogen)
T2 sequence (P29323 19-1055): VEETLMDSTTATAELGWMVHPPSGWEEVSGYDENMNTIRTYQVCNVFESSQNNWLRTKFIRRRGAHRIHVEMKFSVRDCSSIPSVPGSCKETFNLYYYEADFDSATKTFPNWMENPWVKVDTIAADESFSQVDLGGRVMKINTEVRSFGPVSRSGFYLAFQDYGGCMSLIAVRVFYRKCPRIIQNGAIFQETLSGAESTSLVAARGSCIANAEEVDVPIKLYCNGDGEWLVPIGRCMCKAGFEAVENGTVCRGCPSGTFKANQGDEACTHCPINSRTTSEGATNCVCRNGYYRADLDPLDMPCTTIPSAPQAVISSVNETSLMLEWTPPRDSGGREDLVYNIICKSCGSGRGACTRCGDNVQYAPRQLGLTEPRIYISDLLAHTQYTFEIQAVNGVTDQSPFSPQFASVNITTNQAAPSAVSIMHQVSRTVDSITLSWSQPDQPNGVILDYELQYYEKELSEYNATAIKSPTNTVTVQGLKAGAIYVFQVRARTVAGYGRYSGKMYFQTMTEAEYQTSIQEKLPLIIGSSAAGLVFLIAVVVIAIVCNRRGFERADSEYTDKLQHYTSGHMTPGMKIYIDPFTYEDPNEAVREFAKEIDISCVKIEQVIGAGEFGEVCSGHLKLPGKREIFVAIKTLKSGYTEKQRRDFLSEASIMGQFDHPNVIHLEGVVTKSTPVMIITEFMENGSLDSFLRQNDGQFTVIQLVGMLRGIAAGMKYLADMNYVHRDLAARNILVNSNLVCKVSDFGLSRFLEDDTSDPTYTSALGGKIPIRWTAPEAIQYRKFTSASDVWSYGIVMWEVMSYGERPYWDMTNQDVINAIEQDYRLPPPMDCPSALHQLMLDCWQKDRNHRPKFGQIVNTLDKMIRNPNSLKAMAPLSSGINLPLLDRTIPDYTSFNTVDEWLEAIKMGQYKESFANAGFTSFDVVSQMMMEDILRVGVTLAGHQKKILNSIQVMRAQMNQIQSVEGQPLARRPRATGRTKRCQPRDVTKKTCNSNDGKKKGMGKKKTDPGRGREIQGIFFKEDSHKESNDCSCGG
In short: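 Inhibition was inferred from protease cleavage of non-phosphorylated peptide, measured as a coumarin/fluorescein ratio. Kinase reactions used 10 μM ATP for 1 h at room temperature.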

T1 sequence (P08581 with tags, fused parts or gaps): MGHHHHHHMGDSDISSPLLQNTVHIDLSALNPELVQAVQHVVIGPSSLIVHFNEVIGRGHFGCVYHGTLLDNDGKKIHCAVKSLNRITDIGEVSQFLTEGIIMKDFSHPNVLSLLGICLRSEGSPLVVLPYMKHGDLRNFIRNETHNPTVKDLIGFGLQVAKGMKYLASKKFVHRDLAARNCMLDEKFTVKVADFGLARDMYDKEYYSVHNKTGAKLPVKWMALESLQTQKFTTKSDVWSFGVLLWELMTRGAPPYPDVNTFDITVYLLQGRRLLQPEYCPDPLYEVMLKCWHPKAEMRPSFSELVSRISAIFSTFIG

With Cc1c(O)cccc1C(=O)c1c[nH]c2ncc(-c3cccnc3)cc12 [Compound P-0006, (3-Hydroxy-2-methyl-phenyl)-(5-pyridin-3-yl-1H-pyrrolo[2,3b]pyridin-3-yl)-methanone] the IC50 (Met) was at most 10 µM and the IC50 (EphB2) was at most 10 µM.

In the case of CS(=O)(=O)c1cccc(-c2cnc3[nH]cc(C(O)c4c(F)ccc(F)c4F)c3c2)c1 (stereo not drawn) [Compound P-0020], the IC50 (Met) is reported as at most 10 µM and the IC50 (EphB2) is reported as at most 10 µM.

Oc1ccc(F)c(Cc2c[nH]c3ncc(-c4cccnc4)cc23)c1F [Compound P-0078, 2,4-difluoro-3-(5-pyridin-3-yl-1H-pyrrolo[2,3-b]pyridin-3-ylmethyl)-phenol] was tested, and the IC50 (Met) was at most 10 µM and the IC50 (EphB2) was at most 10 µM.

In the case of CC(=O)Nc1cccc(-c2cnc3[nH]cc(C(=O)c4cc(O)ccc4F)c3c2)c1 [Compound P-0001], the IC50 (Met) is reported as at most 10 µM and the IC50 (EphB2) is reported as at most 10 µM.

O=C(c1cccc(O)c1F)c1c[nH]c2ncc(-c3cccnc3)cc12 [Compound P-0027, (2-Fluoro-3-hydroxy-phenyl)-(5-pyridin-3-yl-1H-pyrrolo[2,3-b]pyridin-3-yl)-methanone] was tested, and the IC50 (Met) was at most 10 µM and the IC50 (EphB2) was at most 10 µM.

With Cc1ccc(F)cc1C(=O)c1c[nH]c2ncc(-c3cccc(NS(C)(=O)=O)c3)cc12 [Compound P-0028] the IC50 (Met) was at most 10 µM and the IC50 (EphB2) was at most 10 µM.

Compound CC(=O)Nc1cccc(-c2cnc3[nH]cc(C(=O)c4cccc(O)c4F)c3c2)c1 [Compound P-0035, N-{3-[3-(2-Fluoro-3-hydroxy-benzoyl)-1H-pyrrolo[2,3-b]pyridin-5-yl]-phenyl}-acetamide] has an IC50 (Met) of at most 10 µM and an IC50 (EphB2) of at most 10 µM.

Work on Cn1cc(C(F)(F)F)c(-c2ccc(S(=O)(=O)NCc3c[nH]c4ncccc34)s2)n1 [Compound P-0041] yielded an IC50 (Met) of at most 10 µM and an IC50 (EphB2) of at most 10 µM.

Compound COc1ccc(C(=O)c2c[nH]c3ncc(-c4cccc(/C=C/C(=O)O)c4)cc23)c(Cl)c1 [Compound P-0015] has an IC50 (Met) of at most 10 µM and an IC50 (EphB2) of at most 10 µM.

Work on Oc1ccc(F)c(C(O)c2c[nH]c3ncc(-c4cccnc4)cc23)c1F (stereo not drawn) [Compound P-0009, 2,4-difluoro-3-[hydroxy-(5-pyridin-3-yl-1H-pyrrolo[2,3-b]pyridin-3-yl)-methyl]-phenol] yielded an IC50 (Met) of at most 10 µM and an IC50 (EphB2) of at most 10 µM.

In the case of NC(=O)c1cccc(-c2cnc3[nH]cc(C(=O)c4cccc(O)c4F)c3c2)c1 [Compound P-0034, 3-[3-(2-Fluoro-3-hydroxy-benzoyl)-1H-pyrrolo[2,3-b]pyridin-5-yl]benzamide], the IC50 (Met) is reported as at most 10 µM and the IC50 (EphB2) is reported as at most 10 µM.

For Cc1c(O)cccc1C(=O)c1c[nH]c2ncc(-c3cccs3)cc12 [Compound P-0114, (3-Hydroxy-2-methyl-phenyl)-(5-thiophen-2-yl-1H-pyrrolo[2,3b]pyridin-3-yl)-methanone], the IC50 (Met) was at most 10 µM and the IC50 (EphB2) was at most 10 µM.
